Source: patent US6451812B1, “Farnesyl protein transferase inhibitors for treating arthropathies” (Janssen Pharmaceutica N.V., priority 1998, dated 2002)
Values joined by “and” are separate entries in the source; they are usually repeats but may differ in a detail not shown here. Equal entries are not always repeated.

System: DBA1/J mice
Test: Collagen type II induced arthritis, therapeutic treatment (Example 2)
Assay type: in vivo
Conditions: for Ankylosis score / Incidence of ankylosis (% of animals affected) / Incidence of arthritis (% of animals affected) / Mean Arthritic Score / Mean number of affected paws: treated day 30-49
Procedure: Male DBA1/J mice were immunized intradernally with collagen type II emulsified in complete Freund's Adjuvant on day 0 and day 21. Treatment of mice was started on day 30 (10 animals/treatment group; the animals were randomized so that both groups had similar arthritic symptoms at the start). Mice were treated orally with vehicle [DMSO: cremophor: 0.9% NaCl solution, 1:1:8 (v:v:v)] or compound 75 at a dose of 100 mg/kg. Three times per week symptoms of arthritis were scored. Animals were treated till day 49, at day 50 animals were sacrificed, blood was collected for analysis of anti-collagen antibodies, and […].
Trained lab personnel evaluated the severity and incidence of the arthritic symptoms at regular intervals without knowing which animals had received vehicle or drug.
In Table 14, the mean arthritic score is shown. For each paw, a score ranging from 0 (normal) to 2 (maximal redness and swelling) is given. The score for the 4 paws is summed up and averaged for the 10 animals per group (=Mean arthritic score).
Table 16 summarizes the results of the observations for the occurrence of ankylosis as the arthritis progresses. Each paw is scored as follows: 0 for no ankylosis, 1 for ankylosis. Again the results for the four paws are summed up and averaged for the 10 animals. Ankylosis starts to occur around day 30. During the whole treatment period, ankylosis is lower in the drug treated group than in the vehicle treated group.
In table 19, the radiographic score of the individual mice is depicted. For each paw, a score ranging from 0 (normal) to 2 (deformation of the whole paw was given. The scores of the four paws are summed up.

[1] = 100 mg/kg orally from day 30, versus vehicle
[2] = day 22 after immunization, 100 mpk orally
[3] = day 24 after immunization, 100 mpk orally
[4] = day 28 after immunization, 100 mpk orally
[5] = day 29 after immunization, 100 mpk orally
[6] = day 31 after immunization, 100 mpk orally
[7] = day 34 after immunization, 100 mpk orally
[8] = day 36 after immunization, 100 mpk orally
[9] = day 38 after immunization, 100 mpk orally
[10] = day 41 after immunization, 100 mpk orally
[11] = day 43 after immunization, 100 mpk orally
[12] = day 45 after immunization, 100 mpk orally
[13] = day 48 after immunization, 100 mpk orally
[14] = day 50 after immunization, 100 mpk orally

Cn1cncc1C(N)(c1ccc(Cl)cc1)c1ccc2c(c1)c(-c1cccc(Cl)c1)cc(=O)n2C (single isomer, unassigned; (+)) [Compound 75, (+)-6-[amino(4-chlorophenyl)(1-methyl-1H-imidazol-5-yl)methyl]-4-(3-chlorophenyl)-1-methyl-2(1H)-quinolinone]
effect on mean arthritic score (in words) [1]: clearly suppresses the arthritic score
effect on mean number of affected paws (in words) [1]: reduces that number
lethalities (100 mg/kg orally, day 30-49): no lethalities were observed
signs of toxicity (100 mg/kg orally, day 30-49): did not show any signs of toxicity
Radiographic score, Average (average of 10 mice, 100 mpk orally, treated day 30-49, radiographs at day 50): 2.3
Ankylosis score [2]: 0.00
Incidence of ankylosis (% of animals affected) [2]: 0%
Incidence of arthritis (% of animals affected) [2]: 0%
Mean Arthritic Score [2]: 0.00
Mean number of affected paws [2]: 0.00
Ankylosis score [3]: 0.00
Incidence of ankylosis (% of animals affected) [3]: 0%
Incidence of arthritis (% of animals affected) [3]: 10%
Mean Arthritic Score [3]: 0.03
Mean number of affected paws [3]: 0.10
Ankylosis score [4]: 0.00
Incidence of ankylosis (% of animals affected) [4]: 0%
Incidence of arthritis (% of animals affected) [4]: 90%
Mean Arthritic Score [4]: 3.50
Mean number of affected paws [4]: 2.40
Ankylosis score [5]: 0.00
Incidence of ankylosis (% of animals affected) [5]: 0%
Incidence of arthritis (% of animals affected) [5]: 100%
Mean Arthritic Score [5]: 4.25
Mean number of affected paws [5]: 2.70
Ankylosis score [6]: 0.80
Incidence of ankylosis (% of animals affected) [6]: 60%
Incidence of arthritis (% of animals affected) [6]: 100%
Mean Arthritic Score [6]: 4.03
Mean number of affected paws [6]: 2.80
Ankylosis score [7]: 2.50
Incidence of ankylosis (% of animals affected) [7]: 90%
Incidence of arthritis (% of animals affected) [7]: 100%
Mean Arthritic Score [7]: 3.80
Mean number of affected paws [7]: 2.60
Ankylosis score [8]: 2.40
Incidence of ankylosis (% of animals affected) [8]: 90%
Incidence of arthritis (% of animals affected) [8]: 90%
Mean Arthritic Score [8]: 3.00
Mean number of affected paws [8]: 2.20
Ankylosis score [9]: 2.60
Incidence of ankylosis (% of animals affected) [9]: 100%
Incidence of arthritis (% of animals affected) [9]: 90%
Mean Arthritic Score [9]: 3.20
Mean number of affected paws [9]: 2.60
Ankylosis score [10]: 1.70
Incidence of ankylosis (% of animals affected) [10]: 70%
Incidence of arthritis (% of animals affected) [10]: 90%
Mean Arthritic Score [10]: 3.45
Mean number of affected paws [10]: 2.40
Ankylosis score [11]: 2.20
Incidence of ankylosis (% of animals affected) [11]: 80%
Incidence of arthritis (% of animals affected) [11]: 90%
Mean Arthritic Score [11]: 2.15
Mean number of affected paws [11]: 2.20
Ankylosis score [12]: 1.90
Incidence of ankylosis (% of animals affected) [12]: 80%
Incidence of arthritis (% of animals affected) [12]: 100%
Mean Arthritic Score [12]: 1.33
Mean number of affected paws [12]: 1.90
Ankylosis score [13]: 2.10
Incidence of ankylosis (% of animals affected) [13]: 90%
Incidence of arthritis (% of animals affected) [13]: 60%
Mean Arthritic Score [13]: 1.58
Mean number of affected paws [13]: 1.50
Incidence of arthritis (% of animals affected) (day 50 after immunization (end of the treatment period), 100 mpk orally): 60%
Ankylosis score [14]: 0.80
Incidence of ankylosis (% of animals affected) [14]: 40%
Mean Arthritic Score [14]: 0.88
Mean number of affected paws [14]: 1.20
Radiographic score of individual mice (individual mouse, sum of four paws (0-2 each), 100 mpk orally, treated day 30-49, radiographs at day 50, 100 mg/kg): 2.5 (2×) and 1.0 and 0.0 (2×) and 5.25 and 2.0 (2×) and 3.0 and 4.75
Radiographic score, Median (median of 10 mice, 100 mpk orally, treated day 30-49, radiographs at day 50): 2.25
arthritic symptoms (paw swelling, occurrence of ankylosis and deterioration of the joints as observed on radiographs) (oral administration to mice with established arthritis): reduces the arthritic symptoms
